Reference: patent US20260014133A1, “SUBSTITUTED 3-(l-OXOISOINDOLIN-2-YL)PIPERIDINE-2,6-DIONE/2-(2,6-DIOXOPIPERIDIN-3-YL)ISOINDOLINE-l,3-DIONE ANALOGS AS MODULATORS OF CEREBLON PROTEIN” (St. Jude's Chidren's Research Hospital, Inc., priority 2022, published 2026)

These compounds were tested against 6×His-CRBN-DDB1 protein (Homo sapiens (Human), UniProt Q96SW2) (assay: CRBN Fluorescence Polarization Assay). Conditions: competitive fluorescence polarization; Cy5-O-Len probe 30 nM, 6×His-CRBN-DDB1 200 nM; 1 hour at room temperature; mean of three independent determinations; read-out: CRBN FP (IC50).
6×His-CRBN-DDB1 protein, sequence (Q96SW2 whole entry): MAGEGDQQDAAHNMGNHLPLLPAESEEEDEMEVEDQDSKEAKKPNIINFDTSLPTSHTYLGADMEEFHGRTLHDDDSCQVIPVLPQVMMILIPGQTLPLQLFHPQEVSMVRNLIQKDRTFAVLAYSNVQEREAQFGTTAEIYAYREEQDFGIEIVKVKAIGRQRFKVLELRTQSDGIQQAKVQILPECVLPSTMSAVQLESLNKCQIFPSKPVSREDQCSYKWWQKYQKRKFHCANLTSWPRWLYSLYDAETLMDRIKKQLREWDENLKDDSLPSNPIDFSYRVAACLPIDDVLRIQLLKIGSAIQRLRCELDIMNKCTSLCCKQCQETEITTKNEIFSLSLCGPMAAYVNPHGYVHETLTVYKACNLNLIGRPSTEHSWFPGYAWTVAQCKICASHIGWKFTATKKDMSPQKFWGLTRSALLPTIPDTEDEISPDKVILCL
6×His-CRBN-DDB1 protein, sequence (Q16531 whole entry partner): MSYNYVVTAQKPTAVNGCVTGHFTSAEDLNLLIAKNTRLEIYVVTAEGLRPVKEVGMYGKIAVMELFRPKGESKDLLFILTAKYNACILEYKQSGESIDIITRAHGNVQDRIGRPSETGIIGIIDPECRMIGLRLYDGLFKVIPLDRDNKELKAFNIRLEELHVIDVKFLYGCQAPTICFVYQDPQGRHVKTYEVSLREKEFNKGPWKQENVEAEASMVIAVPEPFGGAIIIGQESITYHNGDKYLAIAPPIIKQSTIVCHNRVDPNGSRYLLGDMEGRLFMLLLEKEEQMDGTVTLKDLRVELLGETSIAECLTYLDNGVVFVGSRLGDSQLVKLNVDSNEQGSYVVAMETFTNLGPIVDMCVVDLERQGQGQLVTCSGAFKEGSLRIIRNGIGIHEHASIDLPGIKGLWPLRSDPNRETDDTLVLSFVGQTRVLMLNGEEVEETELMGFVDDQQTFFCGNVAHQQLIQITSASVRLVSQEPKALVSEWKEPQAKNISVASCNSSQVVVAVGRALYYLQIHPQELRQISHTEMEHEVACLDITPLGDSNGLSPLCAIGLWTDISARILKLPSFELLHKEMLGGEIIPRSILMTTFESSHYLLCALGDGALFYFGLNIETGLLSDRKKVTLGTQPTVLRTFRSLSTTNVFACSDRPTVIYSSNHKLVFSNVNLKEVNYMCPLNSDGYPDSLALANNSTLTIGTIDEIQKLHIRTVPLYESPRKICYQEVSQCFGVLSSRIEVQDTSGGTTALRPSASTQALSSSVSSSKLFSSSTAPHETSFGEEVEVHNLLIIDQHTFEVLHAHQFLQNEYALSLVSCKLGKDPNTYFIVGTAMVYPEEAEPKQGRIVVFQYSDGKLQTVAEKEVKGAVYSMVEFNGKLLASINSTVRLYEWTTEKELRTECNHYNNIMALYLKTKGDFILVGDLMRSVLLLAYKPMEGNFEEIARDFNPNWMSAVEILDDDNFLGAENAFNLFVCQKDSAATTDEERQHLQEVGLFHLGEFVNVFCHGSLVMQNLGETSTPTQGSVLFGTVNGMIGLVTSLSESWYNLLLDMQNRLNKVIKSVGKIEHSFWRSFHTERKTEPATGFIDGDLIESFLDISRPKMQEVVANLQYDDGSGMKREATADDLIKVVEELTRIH
Format: binding
Experimental: In this competitive fluorescent polarization assay Cy5 conjugated lenalidomide analog (Cy5-O-Len)^13 was used as a fluorescent probe. 6×His-CRBN-DDB1 protein (200 nM) and Cy5-O-Len probe (30 nM) were combined in 20 mM HEPES pH 7, 150 mM NaCl, 0.005% Tween-20 assay buffer. 20 μL of this assay cocktail was dispensed into wells of Corning 3821 black 384-well plates. Compounds were transferred to the assay plate from a dose-response plate using a Pintool on a Biomek FXP Laboratory Automation Workstation (Beckman Coulter). The plates were incubated in the dark for 1 hour at room temperature and then read on an Envision plate reader (PerkinElmer, Massachusetts, USA). IC50 values were determined using a proprietary software RISE (Robust Investigation of Screening Experiments), developed in house on the Pipeline Pilot platform (Biovia, v. 17.2.0). Data represent the mean of three independent determinations.
Cereblon binding activity was determined as described herein above, and the results are provided below in Table 2 for representative disclosed compounds. Compound number (“Cmpd No.”) refers to the compound number (and associated compound information such as structure, name, etc.) as provided in Table 1. In Table 2 below: cereblon binding IC50 values are categorized as follows: “A” represents IC50 value<1 μM, “B” represents IC50 value between 1 and 10 μM, and “C” represents IC50 value>10 μM.
Compound `Cc1ccccc1C(=O)Nc1ccc2c(c1)CN(C1CCC(=O)NC1=O)C2=O` (centres unmarked) [Compound 33, N-(2-(2,6-dioxopiperidin-3-yl)-1-oxoisoindolin-5-yl)-2-methylbenzamide] has an IC50 of 1 to 10 µM.
With `COc1ccccc1C(=O)Nc1ccc2c(c1)CN(C1CCC(=O)NC1=O)C2=O` (centres unmarked) [Compound 34, N-(2-(2,6-dioxopiperidin-3-yl)-1-oxoisoindolin-5-yl)-2-methoxybenzamide] the IC50 was 1 to 10 µM.
With `Cc1cccc(C(=O)Nc2ccc3c(c2)CN(C2CCC(=O)NC2=O)C3=O)n1` (centres unmarked) [Compound 35, N-(2-(2,6-dioxopiperidin-3-yl)-1-oxoisoindolin-5-yl)-6-methylpicolinamide] the IC50 was 1 to 10 µM.
`Cc1ccc(C(=O)Nc2ccc3c(c2)CN(C2CCC(=O)NC2=O)C3=O)nc1` (centres unmarked) [Compound 36, N-(2-(2,6-dioxopiperidin-3-yl)-1-oxoisoindolin-5-yl)-5-methylpicolinamide] gave an IC50 of under 1 µM.
`O=C1CCC(N2Cc3cc(NC(=O)c4ccccc4F)ccc3C2=O)C(=O)N1` (centres unmarked) [Compound 37, N-(2-(2,6-dioxopiperidin-3-yl)-1-oxoisoindolin-5-yl)-2-fluorobenzamide] showed an IC50 of 1 to 10 µM.
For `O=C1CCC(N2Cc3cc(Nc4noc5ccccc45)ccc3C2=O)C(=O)N1` (centres unmarked) [Compound 38, 3-(5-(benzo[d]isoxazol-3-ylamino)-1-oxoisoindolin-2-yl)piperidine-2,6-dione], the IC50 was under 1 µM.
Compound `COc1ccc(C(=O)Nc2ccc3c(c2)CN(C2CCC(=O)NC2=O)C3=O)cc1` (centres unmarked) [Compound 40, N-(2-(2,6-dioxopiperidin-3-yl)-1-oxoisoindolin-5-yl)-4-methoxybenzamide] has an IC50 of under 1 µM.
For `CC(C)c1cccc(C(=O)Nc2ccc3c(c2)CN(C2CCC(=O)NC2=O)C3=O)c1` (centres unmarked) [Compound 41, N-(2-(2,6-dioxopiperidin-3-yl)-1-oxoisoindolin-5-yl)-3-isopropylbenzamide], the IC50 was 1 to 10 µM.
For `CC(C)c1ccccc1C(=O)Nc1ccc2c(c1)CN(C1CCC(=O)NC1=O)C2=O` (centres unmarked) [Compound 42, N-(2-(2,6-dioxopiperidin-3-yl)-1-oxoisoindolin-5-yl)-2-isopropylbenzamide], the IC50 was 1 to 10 µM.
In the case of `O=C1CCC(N2Cc3cc(NC(=O)c4ccc(OC(F)(F)F)cc4)ccc3C2=O)C(=O)N1` (centres unmarked) [Compound 43, N-(2-(2,6-dioxopiperidin-3-yl)-1-oxoisoindolin-5-yl)-4-(trifluoromethoxy)benzamide], the IC50 is reported as 1 to 10 µM.
With `O=C1CCC(N2Cc3cc(NC(=O)c4cccc(OC(F)(F)F)c4)ccc3C2=O)C(=O)N1` (centres unmarked) [Compound 44, N-(2-(2,6-dioxopiperidin-3-yl)-1-oxoisoindolin-5-yl)-3-(trifluoromethoxy)benzamide] the IC50 was 1 to 10 µM.
In the case of `O=C1CCC(N2Cc3cc(NC(=O)c4ccccc4OC(F)(F)F)ccc3C2=O)C(=O)N1` (centres unmarked) [Compound 45, N-(2-(2,6-dioxopiperidin-3-yl)-1-oxoisoindolin-5-yl)-2-(trifluoromethoxy)benzamide], the IC50 is reported as 1 to 10 µM.
For `CS(=O)(=O)Nc1ccc(C(=O)Nc2ccc3c(c2)CN(C2CCC(=O)NC2=O)C3=O)cc1` (centres unmarked) [Compound 46, N-(2-(2,6-dioxopiperidin-3-yl)-1-oxoisoindolin-5-yl)-4-(methylsulfonamido)benzamide], the IC50 was 1 to 10 µM.
In the case of `CS(=O)(=O)Nc1cccc(C(=O)Nc2ccc3c(c2)CN(C2CCC(=O)NC2=O)C3=O)c1` (centres unmarked) [Compound 47, N-(2-(2,6-dioxopiperidin-3-yl)-1-oxoisoindolin-5-yl)-3-(methylsulfonamido)benzamide], the IC50 is reported as 1 to 10 µM.
With `O=C1CCC(N2Cc3cc(NC(=O)c4ccc(C5CC5)cc4)ccc3C2=O)C(=O)N1` (centres unmarked) [Compound 48, 4-cyclopropyl-N-(2-(2,6-dioxopiperidin-3-yl)-1-oxoisoindolin-5-yl)benzamide] the IC50 was 1 to 10 µM.
Compound `O=C1CCC(N2Cc3cc(NC(=O)c4ccccc4C4CC4)ccc3C2=O)C(=O)N1` (centres unmarked) [Compound 49, 2-cyclopropyl-N-(2-(2,6-dioxopiperidin-3-yl)-1-oxoisoindolin-5-yl)benzamide] has an IC50 of 1 to 10 µM.
Work on `O=C1CCC(N2Cc3cc(NC(=O)c4cccc(C5CC5)c4)ccc3C2=O)C(=O)N1` (centres unmarked) [Compound 50, 3-cyclopropyl-N-(2-(2,6-dioxopiperidin-3-yl)-1-oxoisoindolin-5-yl)benzamide] yielded an IC50 of 1 to 10 µM.
`N#Cc1ccccc1C(=O)Nc1ccc2c(c1)CN(C1CCC(=O)NC1=O)C2=O` (centres unmarked) [Compound 51, 2-cyano-N-(2-(2,6-dioxopiperidin-3-yl)-1-oxoisoindolin-5-yl)benzamide] was tested, and the IC50 was 1 to 10 µM.
With `N#Cc1ccc(C(=O)Nc2ccc3c(c2)CN(C2CCC(=O)NC2=O)C3=O)cc1` (centres unmarked) [Compound 52, 4-cyano-N-(2-(2,6-dioxopiperidin-3-yl)-1-oxoisoindolin-5-yl)benzamide] the IC50 was 1 to 10 µM.
With `COCCOc1cccc(C(=O)Nc2ccc3c(c2)CN(C2CCC(=O)NC2=O)C3=O)c1` (centres unmarked) [Compound 53, N-(2-(2,6-dioxopiperidin-3-yl)-1-oxoisoindolin-5-yl)-3-(2-methoxyethoxy)benzamide] the IC50 was 1 to 10 µM.
With `Cc1cc(C(=O)Nc2ccc3c(c2)CN(C2CCC(=O)NC2=O)C3=O)ccc1Br` (centres unmarked) [Compound 54, 4-bromo-N-(2-(2,6-dioxopiperidin-3-yl)-1-oxoisoindolin-5-yl)-3-methylbenzamide] the IC50 was 1 to 10 µM.
In the case of `Cc1cc(F)cc(C(=O)Nc2ccc3c(c2)CN(C2CCC(=O)NC2=O)C3=O)c1` (centres unmarked) [Compound 55], the IC50 is reported as 1 to 10 µM.
For `Cc1cc(C(=O)Nc2ccc3c(c2)CN(C2CCC(=O)NC2=O)C3=O)ccc1F` (centres unmarked) [Compound 56, N-(2-(2,6-dioxopiperidin-3-yl)-1-oxoisoindolin-5-yl)-4-fluoro-3-methylbenzamide], the IC50 was 1 to 10 µM.
Compound `Cc1cccc(C(=O)Nc2ccc3c(c2)CN(C2CCC(=O)NC2=O)C3=O)c1Cl` (centres unmarked) [Compound 57, 2-chloro-N-(2-(2,6-dioxopiperidin-3-yl)-1-oxoisoindolin-5-yl)-3-methylbenzamide] has an IC50 of 1 to 10 µM.
`CCOc1cc(C)cc(C(=O)Nc2ccc3c(c2)CN(C2CCC(=O)NC2=O)C3=O)c1` (centres unmarked) [Compound 58, N-(2-(2,6-dioxopiperidin-3-yl)-1-oxoisoindolin-5-yl)-3-ethoxy-5-methylbenzamide] was tested, and the IC50 was 1 to 10 µM.
For `COc1cc(F)cc(C(=O)Nc2ccc3c(c2)CN(C2CCC(=O)NC2=O)C3=O)c1` (centres unmarked) [Compound 59, N-(2-(2,6-dioxopiperidin-3-yl)-1-oxoisoindolin-5-yl)-3-fluoro-5-methoxybenzamide], the IC50 was 1 to 10 µM.
`CN(C)c1cccc(C(=O)Nc2ccc3c(c2)CN(C2CCC(=O)NC2=O)C3=O)c1` (centres unmarked) [Compound 60, 3-(dimethylamino)-N-(2-(2,6-dioxopiperidin-3-yl)-1-oxoisoindolin-5-yl)benzamide] was tested, and the IC50 was 1 to 10 µM.
For `COc1cc(C)cc(C(=O)Nc2ccc3c(c2)CN(C2CCC(=O)NC2=O)C3=O)c1` (centres unmarked) [Compound 61, N-(2-(2,6-dioxopiperidin-3-yl)-1-oxoisoindolin-5-yl)-3-methoxy-5-methylbenzamide], the IC50 was 1 to 10 µM.
`O=C1CCC(N2Cc3cc(Nc4noc5cc(F)ccc45)ccc3C2=O)C(=O)N1` (centres unmarked) [Compound 62, 3-(5-((6-fluorobenzo[d]isoxazol-3-yl)amino)-1-oxoisoindolin-2-yl)piperidine-2,6-dione] showed an IC50 of under 1 µM.
Work on `O=C1CCC(N2Cc3cc(Nc4nc5ccccc5s4)ccc3C2=O)C(=O)N1` (centres unmarked) [Compound 63, 3-(5-(benzo[d]thiazol-2-ylamino)-1-oxoisoindolin-2-yl)piperidine-2,6-dione] yielded an IC50 of 1 to 10 µM.
`O=C1CCC(N2Cc3cc(NC(=O)COc4ccccc4)ccc3C2=O)C(=O)N1` (centres unmarked) [Compound 64, N-(2-(2,6-dioxopiperidin-3-yl)-1-oxoisoindolin-5-yl)-2-phenoxyacetamide] was tested, and the IC50 was under 1 µM.
`O=C1CCC(N2Cc3cc(NC(=O)COCc4ccccc4)ccc3C2=O)C(=O)N1` (centres unmarked) [Compound 65, 2-(benzyloxy)-N-(2-(2,6-dioxopiperidin-3-yl)-1-oxolsoindolin-5-yl)acetamide] was tested, and the IC50 was under 1 µM.
